Source: patent US6972296B2, “Carboxylic acid derivatives that inhibit the binding of integrins to their receptors” (Encysive Pharmaceuticals Inc., priority 1999, dated 2005)

Target: T1, α4β1 integrin (Homo sapiens, UniProt P05556+P13612)
T1 construct: endogenous in cells; host or cells: Ramos cells
Assay: Adhesion of calcein-labeled Ramos cells to CS1 (fibronectin) peptide conjugated ovalbumin
Type: cell-based
Settings: Ramos cell adhesion to CS1 conjugated ovalbumin
Method in brief: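 Plates bearing CS1 fibronectin peptide coupled to ovalbumin (0.5 μg/ml coat, 3% BSA block) received calcein-labelled Ramos cells plus compound (100 μM stated) for 30 min at 37 °C. Buffer was TBS pH 7.5 with 1 mM Mg2+, Ca2+, Mn2+; bound cells quantified by fluorescence after lysis; […].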

[1] = Table 7, dose required to give 50% inhibition
[2] = Table 5, dose required to give 50% inhibition

T1 sequence (P13612 34-1032): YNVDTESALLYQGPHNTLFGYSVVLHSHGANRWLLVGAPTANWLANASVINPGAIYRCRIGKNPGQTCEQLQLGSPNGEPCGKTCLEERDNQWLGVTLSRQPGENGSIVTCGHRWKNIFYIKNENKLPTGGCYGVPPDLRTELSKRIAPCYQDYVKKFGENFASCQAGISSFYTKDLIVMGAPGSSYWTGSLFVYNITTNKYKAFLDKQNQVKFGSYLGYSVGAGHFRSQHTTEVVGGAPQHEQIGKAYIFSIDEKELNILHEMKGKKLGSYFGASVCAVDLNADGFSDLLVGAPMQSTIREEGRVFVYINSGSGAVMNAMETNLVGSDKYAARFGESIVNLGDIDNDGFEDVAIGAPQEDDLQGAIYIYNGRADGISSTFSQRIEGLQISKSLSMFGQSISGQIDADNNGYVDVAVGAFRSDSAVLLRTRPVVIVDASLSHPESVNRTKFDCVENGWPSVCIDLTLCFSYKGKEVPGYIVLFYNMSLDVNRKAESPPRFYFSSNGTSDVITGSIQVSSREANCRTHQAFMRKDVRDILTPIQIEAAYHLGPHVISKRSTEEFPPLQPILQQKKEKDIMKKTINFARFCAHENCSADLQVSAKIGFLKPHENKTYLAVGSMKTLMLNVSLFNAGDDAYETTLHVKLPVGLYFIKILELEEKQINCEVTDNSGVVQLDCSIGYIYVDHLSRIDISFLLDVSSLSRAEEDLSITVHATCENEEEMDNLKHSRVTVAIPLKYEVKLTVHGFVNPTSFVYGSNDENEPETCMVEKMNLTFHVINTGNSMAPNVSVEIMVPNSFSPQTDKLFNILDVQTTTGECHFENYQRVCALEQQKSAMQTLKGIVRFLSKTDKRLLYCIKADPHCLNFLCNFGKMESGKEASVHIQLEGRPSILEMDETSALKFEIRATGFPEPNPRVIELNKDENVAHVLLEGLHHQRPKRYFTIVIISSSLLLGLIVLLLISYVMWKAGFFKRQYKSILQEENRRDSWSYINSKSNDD
T1 sequence (P05556 21-798): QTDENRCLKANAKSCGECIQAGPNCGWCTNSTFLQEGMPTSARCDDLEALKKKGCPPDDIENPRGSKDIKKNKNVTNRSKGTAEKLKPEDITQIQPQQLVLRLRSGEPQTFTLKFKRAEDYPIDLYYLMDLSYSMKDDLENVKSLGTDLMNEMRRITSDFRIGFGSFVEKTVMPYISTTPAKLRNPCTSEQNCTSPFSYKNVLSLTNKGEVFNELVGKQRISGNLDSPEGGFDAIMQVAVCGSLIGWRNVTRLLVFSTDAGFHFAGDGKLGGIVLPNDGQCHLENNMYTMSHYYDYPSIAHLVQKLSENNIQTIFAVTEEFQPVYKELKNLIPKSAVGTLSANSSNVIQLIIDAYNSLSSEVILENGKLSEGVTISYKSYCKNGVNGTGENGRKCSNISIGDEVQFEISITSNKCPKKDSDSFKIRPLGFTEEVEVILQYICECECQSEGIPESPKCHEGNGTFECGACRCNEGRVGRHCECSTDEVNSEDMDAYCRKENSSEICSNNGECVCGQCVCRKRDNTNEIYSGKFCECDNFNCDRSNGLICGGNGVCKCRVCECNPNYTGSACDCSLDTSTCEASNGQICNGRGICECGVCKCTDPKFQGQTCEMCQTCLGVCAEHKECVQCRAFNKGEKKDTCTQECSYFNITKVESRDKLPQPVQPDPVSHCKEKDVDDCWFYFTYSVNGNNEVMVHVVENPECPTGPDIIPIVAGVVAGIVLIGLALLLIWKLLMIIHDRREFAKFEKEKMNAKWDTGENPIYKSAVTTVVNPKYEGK

Question: How did the IC50 (Table 6, 30 minutes at 37° C.) turn out when `Cc1ccc([C@H](CC(=O)O)NC(=O)Nc2c(O)c(C)cn(Cc3c(F)cccc3F)c2=O)cc1` was run?
Answer: 25 nM

Question: For `Cc1cn(Cc2ccccc2Cl)c(=O)c(NC(=O)NC(CC(=O)O)c2ccc(S(C)(=O)=O)cc2)c1O` (stereo not shown), which IC50 [1] is on record?
Answer: 134 nM

Question: For `CCC(CC)Oc1cccc([C@H](CC(=O)O)NC(=O)Nc2c(O)c3c(n(Cc4c(C)cccc4Cl)c2=O)CCC3)c1`, which IC50 [1] is on record?
Answer: 22 nM

Question: How did the IC50 [1] turn out when `Cc1ccc(-c2cccc([C@H](CC(=O)O)NC(=O)Nc3c(O)c(C)cn(Cc4ccccc4Cl)c3=O)c2)cc1` was run?
Answer: 23 nM

Question: Which IC50 [2] does the source give for `Cc1ccc([C@H](CC(=O)O)NC(=O)Nc2c(O)ccn(Cc3c(Cl)cccc3C#N)c2=O)cc1` [(3S)-3-[({[1-(2-chloro-6-cyanobenzyl)-4-hydroxy-2-oxo-1,2-dihydropyridin-3-yl]amino}carbonyl)amino]-3-(4-methylphenyl)propanoic acid] here?
Answer: 7 nM

Question: Which IC50 (Table 2, 30 minutes at 37° C.) does the source give for `Cc1ccccc1NC(=O)Nc1ccc(CN2CCC[C@H](NC(=O)N[C@@H](CC(=O)O)c3ccc4c(c3)OCO4)C2=O)cc1` here?
Answer: 0.3 nM

Question: Which IC50 [1] does the source give for `Cc1cccc(Cl)c1Cn1c2c(c(O)c(NC(=O)N[C@@H](CC(=O)O)c3cccc(OC(F)F)c3)c1=O)CCC2` here?
Answer: 3 nM

Question: For `O=C(O)C[C@H](NC(=O)Nc1c(O)c2c(n(Cc3ccccc3Cl)c1=O)CCC2)c1ccc(C(F)(F)F)cc1`, which IC50 [1] is on record?
Answer: 18 nM

Question: How did the IC50 [1] turn out when `CCOc1cccc(Cl)c1Cn1c2c(c(O)c(NC(=O)N[C@@H](CC(=O)O)c3ccc(C)cc3)c1=O)CCC2` was run?
Answer: 3 nM

Question: How did the IC50 (Table 6, 30 minutes at 37° C.) turn out when `Cc1ccc([C@H](CC(=O)O)NC(=O)Nc2c(O)c3ccccc3n(Cc3ccccc3Cl)c2=O)cc1C` was run?
Answer: 25 nM

Question: How did the IC50 [2] turn out when `COc1cc([C@H](CC(=O)O)NC(=O)Nc2c(O)c(C)cn(Cc3ccccc3Cl)c2=O)ccc1C` was run?
Answer: 20 nM

Question: For `CCOc1ccc2cc([C@H](CC(=O)O)NC(=O)Nc3c(O)c(C)cn(Cc4c(Cl)cccc4OCC)c3=O)ccc2c1`, which IC50 [1] is on record?
Answer: 6 nM

Question: Which IC50 (Table 6, 30 minutes at 37° C.) does the source give for `Cc1ccc([C@H](CC(=O)O)NC(=O)Nc2c(O)c(C)cn(Cc3c(Cl)cccc3Cl)c2=O)cc1` here?
Answer: 20 nM

Question: With `Cn1ccc2ccc([C@H](CC(=O)O)NC(=O)Nc3c(O)c4c(n(Cc5ccccc5Cl)c3=O)CCC4)cc21` as the molecule, how does the IC50 [1] read?
Answer: 3 nM

Question: With `O=C(Nc1cccn(Cc2cccs2)c1=O)NC(c1ccc2c(c1)OCO2)C(F)(F)C(=O)O` (stereo not shown) [3-(1,3-benzodioxol-5-yl)-2,2-difluoro-3-[({[2-oxo-1-(2-thiophenylmethyl)-1,2-dihydro-3-pyridinyl]amino}carbonyl)amino]propanoic acid] as the molecule, how does the IC50 (Table 4, 30 minutes at 37° C.) read?
Answer: > 100000 nM

Question: For `COc1c(C)cc([C@H](CC(=O)O)NC(=O)Nc2c(O)c3c(n(Cc4ccccc4Cl)c2=O)CCC3)cc1C`, which IC50 [1] is on record?
Answer: 11 nM

Question: How did the IC50 [1] turn out when `CCOc1cccc([C@H](CC(=O)O)NC(=O)Nc2c(O)c(C)nn(Cc3c(Cl)cccc3OCC)c2=O)c1` [(3S)-3-[({[2-(2-chloro-6-ethoxybenzyl)-5-hydroxy-6-methyl-3-oxo-2,3-dihydropyridazin-4-yl]amino}carbonyl)amino]-3-(3-ethoxyphenyl)propanoic acid] was run?
Answer: 3 nM

Question: Which IC50 [1] does the source give for `CCOc1cccc([C@H](CC(=O)O)NC(=O)Nc2c(O)c3c(n(Cc4c(OCC)ccc(Cl)c4Cl)c2=O)CCC3)c1` here?
Answer: 3 nM

Question: How did the IC50 [1] turn out when `O=C(O)CC(NC(=O)Nc1c(O)c2c(n(Cc3ccccc3Cl)c1=O)CCC2)c1ccc(-c2ccccc2)cc1` (stereo not shown) was run?
Answer: 30 nM

Question: With `CCOc1cccc(Cl)c1Cn1cc(C)c(O)c(NC(=O)N[C@@H](CC(=O)O)c2ccc3c(c2)CCO3)c1=O` [(3S)-3-[({[1-(2-chloro-6-ethoxybenzyl)-4-hydroxy-5-methyl-2-oxo-1,2-dihydropyridin-3-yl]amino}carbonyl)amino]-3-(2,3-dihydro-1-benzofuran-5-yl)propanoic acid] as the molecule, how does the IC50 [1] read?
Answer: 2 nM

Question: With `Cc1ccc(C(CC(=O)O)NC(=O)Nc2c(O)c(C)cn(Cc3ccccc3Cl)c2=O)o1` (stereo not shown) as the molecule, how does the IC50 [1] read?
Answer: 20 nM

Question: How did the IC50 [2] turn out when `Cc1ccc([C@H](CC(=O)O)NC(=O)Nc2cccn(Cc3cccc(Cl)c3)c2=O)cc1` was run?
Answer: 500 nM

Question: With `O=C(O)C[C@H](NC(=O)N1CCCCc2ccn(Cc3ccccc3)c(=O)c21)c1ccc2c(c1)OCO2` [(3S)-3-(1,3-benzodioxol-5-yl)-3-({[9-oxo-8-(phenylmethyl)-2,3,4,5,8,9-hexahydro-1H-pyrido[3,4-b]azepin-1-yl]carbonyl}amino)propanoic acid] as the molecule, how does the IC50 (Table 3, 30 minutes at 37° C.) read?
Answer: 4000 nM

Question: For `CC(C)Oc1cc([C@H](CC(=O)O)NC(=O)Nc2c(O)c3c(n(Cc4ccccc4Cl)c2=O)CCC3)ccc1Cl` [(3S)-3-[({[1-(2-chlorobenzyl)-4-hydroxy-2-oxo-2,5,6,7-tetrahydro-1H-cyclopenta[b]pyridin-3-yl]amino}carbonyl)amino]-3-(4-chloro-3-isopropoxyphenyl)propanoic acid], which IC50 [1] is on record?
Answer: 38 nM

Question: For `CCOc1cccc(Cl)c1Cn1cc(C)c(O)c(NC(=O)N[C@@H](CC(=O)O)c2cccc(C(F)(F)F)c2)c1=O`, which IC50 [1] is on record?
Answer: 3 nM

Question: How did the IC50 (Table 3, 30 minutes at 37° C.) turn out when `Cc1ccc([C@H](CC(=O)O)NC(=O)Nc2c(C)nc(C)n(Cc3ccccc3Cl)c2=O)cc1` was run?
Answer: 10 nM

Question: With `Cc1ccc([C@H](CC(=O)O)NC(=O)Nc2c(O)c(C)cn(Cc3cc(C(F)(F)F)ccc3Cl)c2=O)cc1` as the molecule, how does the IC50 [1] read?
Answer: 6 nM

Question: `O=C(O)C[C@H](NC(=O)Nc1c(O)ccn(Cc2ccccc2Cl)c1=O)c1cc(C(F)(F)F)cc(C(F)(F)F)c1` was tested. Which IC50 [2] did it give?
Answer: 220 nM

Question: How did the IC50 (Table 3, 30 minutes at 37° C.) turn out when `CCc1ccn(Cc2ccccc2Cl)c(=O)c1NC(=O)N[C@@H](CC(=O)O)c1ccc(C)cc1` [(3S)-3-{[({1-[(2-chlorophenyl)methyl]-4-ethyl-2-oxo-1,2-dihydro-3-pyridinyl}amino)carbonyl]amino}-3-(4-methylphenyl)propanoic acid] was run?
Answer: 10 nM

Question: Which IC50 [1] does the source give for `Cc1cccc(Cl)c1Cn1c2c(c(O)c(NC(=O)N[C@@H](CC(=O)O)c3ccc(C4CC4)cc3)c1=O)CCC2` here?
Answer: 19 nM

Question: Which IC50 [2] does the source give for `Cc1ccc([C@H](CC(=O)O)NC(=O)Nc2c(O)ccn(Cc3ccccc3C#N)c2=O)cc1` [(3S)-3-[({[1-(2-cyanobenzyl)-4-hydroxy-2-oxo-1,2-dihydropyridin-3-yl]amino}carbonyl)amino]-3-(4-methylphenyl)propanoic acid] here?
Answer: 9 nM

Question: With `Cc1ccc([C@H](CC(=O)O)NC(=O)Nc2c(O)ccn(Cc3ccccn3)c2=O)cc1` [(3S)-3-[({[4-hydroxy-2-oxo-1-(pyridin-2-ylmethyl)-1,2-dihydropyridin-3-yl]amino}carbonyl)amino]-3-(4-methylphenyl)propanoic acid] as the molecule, how does the IC50 [2] read?
Answer: 45 nM

Question: How did the IC50 (Table 6, 30 minutes at 37° C.) turn out when `O=C(O)CC(NC(=O)Nc1c(O)ccn(Cc2ccccc2Cl)c1=O)c1cccs1` (stereo not shown) was run?
Answer: 30 nM

Question: With `CCOc1cc([C@H](CC(=O)O)NC(=O)Nc2c(O)ccn(Cc3ccccc3Cl)c2=O)ccc1OC` [(3S)-3-[({[1-(2-chlorobenzyl)-4-hydroxy-2-oxo-1,2-dihydropyridin-3-yl]amino}carbonyl)amino]-3-(3-ethoxy-4-methoxyphenyl)propanoic acid] as the molecule, how does the IC50 [2] read?
Answer: 2 nM

Question: With `COc1cccc(Cl)c1Cn1cc(C)c(O)c(NC(=O)N[C@@H](CC(=O)O)c2ccc(C)cc2)c1=O` as the molecule, how does the IC50 (Table 6, 30 minutes at 37° C.) read?
Answer: 5 nM

Question: How did the IC50 [1] turn out when `CCOc1cccc(Cl)c1Cn1c(C)c(CC)c(O)c(NC(=O)N[C@@H](CC(=O)O)c2cccc(OC(C)C)c2)c1=O` was run?
Answer: 5 nM

Question: How did the IC50 (Table 3, 30 minutes at 37° C.) turn out when `Cc1ccn(Cc2ccccc2Cl)c(=O)c1NC(=O)N[C@H](C)CC(=O)O` was run?
Answer: 300 nM

Question: `CCOc1cccc([C@H](CC(=O)O)NC(=O)Nc2c(O)c3c(n(Cc4c(Cl)cccc4OCC)c2=O)CCC3)c1` was tested. Which IC50 [1] did it give?
Answer: 2 nM

Question: How did the IC50 (Table 6, 30 minutes at 37° C.) turn out when `Cc1cn(Cc2ccccc2Cl)c(=O)c(NC(=O)N[C@@H](CC(=O)O)c2cccc(OC3CCCC3)c2)c1O` was run?
Answer: 15 nM

Question: With `COc1cc(OC)cc([C@H](CC(=O)O)NC(=O)Nc2c(O)ccn(Cc3c(Cl)cccc3OC)c2=O)c1` [(3S)-3-[({[1-(2-chloro-6-methoxybenzyl)-4-hydroxy-2-oxo-1,2-dihydropyridin-3-yl]amino}carbonyl)amino]-3-(3,5-dimethoxyphenyl)propanoic acid] as the molecule, how does the IC50 [2] read?
Answer: 1.5 nM

Question: Which IC50 [1] does the source give for `O=C(O)C[C@H](NC(=O)Nc1c(O)c2c(n(Cc3ccccc3Cl)c1=O)CCC2)c1cccc(O)c1` here?
Answer: 8 nM

Question: How did the IC50 [2] turn out when `CCOc1cccc([C@H](CC(=O)O)NC(=O)Nc2c(O)ccn(Cc3ccccc3Cl)c2=O)c1` [(3S)-3-[({[1-(2-chlorobenzyl)-4-hydroxy-2-oxo-1,2-dihydropyridin-3-yl]amino}carbonyl)amino]-3-(3-ethoxyphenyl)propanoic acid] was run?
Answer: 3 nM

Question: Which IC50 [1] does the source give for `CC(C)Cc1cccc([C@H](CC(=O)O)NC(=O)Nc2c(O)c3c(n(Cc4ccccc4Cl)c2=O)CCC3)c1` here?
Answer: 15 nM

Question: `CCOc1cccc([C@H](CC(=O)O)NC(=O)Nc2c(O)c(Cl)cn(Cc3c(Cl)cccc3OCC)c2=O)c1` was tested. Which IC50 [1] did it give?
Answer: 3 nM

Question: Which IC50 [2] does the source give for `Cc1ccc([C@H](CC(=O)O)NC(=O)Nc2c(O)ccn(Cc3ccccc3Br)c2=O)cc1` here?
Answer: 15 nM

Question: Which IC50 [2] does the source give for `COc1ccc(Cl)c(Cn2ccc(O)c(NC(=O)N[C@@H](CC(=O)O)c3ccc(C)cc3)c2=O)c1` here?
Answer: 12 nM

Question: `CCOc1cccc([C@H](CC(=O)O)NC(=O)Nc2c(O)c3c(n(Cc4ccccc4Cl)c2=O)CCC3)c1` was tested. Which IC50 (Table 6, 30 minutes at 37° C.) did it give?
Answer: 3 nM

Question: `CCOc1ccc(Cl)c(Cl)c1Cn1c2c(c(O)c(NC(=O)N[C@@H](CC(=O)O)c3cccc(OCC4CC4)c3)c1=O)CCC2` was tested. Which IC50 [1] did it give?
Answer: 7 nM

Question: `Cc1ccc([C@H](CC(=O)O)NC(=O)Nc2c(O)ccn(Cc3cccc(Cl)c3Cl)c2=O)cc1` was tested. Which IC50 [2] did it give?
Answer: 130 nM

Question: `O=C(O)C[C@@H](Cc1cccc2ccccc12)NC(=O)Nc1c(O)ccn(Cc2ccccc2Cl)c1=O` was tested. Which IC50 (Table 6, 30 minutes at 37° C.) did it give?
Answer: 2500 nM

Question: With `Cc1ccc([C@H](CC(=O)O)NC(=O)Nc2cccn(Cc3ccccc3[N+](=O)[O-])c2=O)cc1` as the molecule, how does the IC50 (Table 4, 30 minutes at 37° C.) read?
Answer: 1000 nM

Question: `COc1cccc([C@H](CC(=O)O)NC(=O)Nc2c(O)c(C)cn(Cc3ccccc3Cl)c2=O)c1` was tested. Which IC50 (Table 6, 30 minutes at 37° C.) did it give?
Answer: 3 nM

Question: With `CCCNc1ccn(Cc2ccccc2Cl)c(=O)c1NC(=O)N[C@@H](CC(=O)O)c1ccc(C)cc1` [(3S)-3-[({[1-[(2-chlorophenyl)methyl]-2-oxo-4-(propylamino)-1,2-dihydro-3-pyridinyl]amino}carbonyl)amino]-3-(4-methylphenyl)propanoic acid] as the molecule, how does the IC50 (Table 3, 30 minutes at 37° C.) read?
Answer: 10 nM

Question: `Cc1ccc([C@H](CC(=O)O)NC(=O)Nc2c(O)ccn(Cc3ccc(C(F)(F)F)cc3)c2=O)cc1` was tested. Which IC50 [2] did it give?
Answer: 20 nM

Question: With `CC(C)(C)c1ccc([C@H](CC(=O)O)NC(=O)Nc2c(O)ccn(Cc3ccccc3Cl)c2=O)cc1` as the molecule, how does the IC50 (Table 3, 30 minutes at 37° C.) read?
Answer: 400 nM
